# Data taken from patent US20110224300A1, “USE OF POTASSIUM 2-(a- HYDROXYPENTYL) BENZOATE IN THE MANUFACTURE OF MEDICAMENTS FOR PREVENTING AND/OR TREATING SENILE [sequence]” (Institute of Mataria Medica, Chinese Academy of Me, priority 2008, published 2011).
# How the values were obtained:
# GFAP = GFAP immunohistochemistry, activated astrocytes of 2-VO rats; format: in vivo, rat
# Procedure: The method for tissue fixation was described above. Serial coronal sections (40 μm) of the brains were cut through the dorsal hippocampus on a freezing microtome and collected in 6-well plates containing 0.01 M PBS. The detection of GFAP and BDNF immunoreactivity was performed using a conventional avidin-biotin-immunoperoxidease technique.
# For quantitative analysis, one from every five samples in a continuous series of hippocampal or cortical tissue sections was taken, and was processed immunohistochemically. Thus, three slides were taken from each rat, and were read under an objective (×1.6) microscope. The total area of positively stained neurons was counted with Image-pro Plus 5.0 software.
# Cerebral damage caused by hypoperfusion may be the basis for spatial learning and memory impairment, including earliest white matter damage, accompanied by an increase of astrocytes and microglia activation. Glial fibrillary acidic protein (GFAP) immunohistochemical staining can be used to label the activated astrocytes. 2-3 photos were taken from each selected slices in the same regions. The number of the GFAP positive astrocytes was calculated as the average value of the region. Four anatomical regions were selected to observe: the cortex, hippocampus, corpus callosum and optic tract.
# MDA = MDA level of brain tissues from SAMP8 mice; format: in vivo; conditions: 35 days; for MDA level in the hippocampus / decrease of hippocampus MDA level compared with SAMP8: without statistical significance
# Procedure: The biochemical assays were conducted later (in 24 h) after behavioral testing. Eight rats in each group were anesthetized with ether and sacrificed. The brains were quickly removed and cleaned with ice-cold saline. Then the parietal cortex and hippocampus were isolated. For biochemical analysis, the tissues were weighed and homogenized in ice-cold saline with the proportion of 1:9 (w/v). Homogenization (IKA, Germany) was carried out for 2 min in an ice bath. After the homogenates were centrifuged at 2,000×g for 10 min at 4° C. (Sigma, Germany), the supernatant was used for analytical procedures. The levels of choline acetyltransferase (ChAT) SOD, and MDA activities were determined with commercial colorimetric assay kits (Nanjing Jiancheng Bioengineering Institute, China). The content of protein in the supernatant was determined by Bradford method using BSA as standard.
# SAMP8 were divided into three experimental groups randomly: one vehicle control group, and two dl-PHPB-treated groups (50, and 160 mg/kg). Drugs and vehicle were administered orally to SAMP8 mice for 35 days (one time/each day). The spatial learning and memory abilities of SAMP8 mice were detected by Morris water maze and DTT-2 jumping apparatus in 31-35 days. The testing was commenced at 40 min after drugs treated. The biochemical and pathology assays conducted later (in 24 h) after behavioral testing.
# The methods as described previously.
smiles,measurement,setting,value
"CCCCC(O)c1ccccc1C(=O)[O-].[K+] (racemic) [dl-PHPB, Potassium 2-(1-Hydroxypentyl)-benzoate]",GFAP-positive cells in the hippocampus,"GFAP; administration of 21 days, P<0.05 or P<0.01",significantly less than in the vehicle group
same,GFAP-positive cells in the cortex,"GFAP; administration of 21 days, in particular dl-PHPB 39 mg/kg (P<0.01)",significantly less than in the vehicle group
same,GFAP-positive cells in the optic tract,"GFAP; dl-PHPB 39 mg/kg, 21 days",significantly less than the vehicle group
same,GFAP-positive cells in the hippocampus,"GFAP; dl-PHPB 39 mg/kg, 21 days, P<0.01",most significant effect
same,GFAP positive cells in the corpus callosum,"GFAP; dl-PHPB 39 mg/kg, P<0.05",significantly decreased level of GFAP positive cells
same,GFAP-positive cells in the optic tract,"GFAP; dl-PHPB 129 mg/kg, 21 days",significantly less than the vehicle group
same,GFAP-positive cells in the hippocampus,"GFAP; dl-PHPB 129 mg/kg, 21 days, P<0.01",most significant effect
same,MDA level in the hippocampus,MDA; 50 mg/kg oral,1.23±0.05 nmol/mg protein
same,decrease of hippocampus MDA level compared with SAMP8,MDA; 50 mg/kg oral,35.3%
same,MDA level in the hippocampus,MDA; 160 mg/kg oral,1.26±0.09 nmol/mg protein
same,decrease of hippocampus MDA level compared with SAMP8,MDA; 160 mg/kg oral,33.7%
same,MDA level in the cortex,"MDA; cortex, data not shown",did not significantly improved in MDA level
